The structures appear in SMILES notation.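 1) Cells in 96-well plates. 2) Compound, 48 h, 5 concentrations. 3) Linear interpolation between surrounding doses. 4) Unreached endpoint = highest concentration. TGI denotes the concentration required for complete inhibition of growth.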

Among the test systems are 786-0 renal; BT-549 breast; COLO 205 colon; HCT-116 colon; HCT-15 colon; HOP-62 NSCLC; MALME-3M melanoma; MDA-MB-435; MOLT-4 leukemia; NCI-H226 lung; NCI/ADR-RES ovarian; OVCAR-4 ovarian; SF-295 CNS; SW-620 colon; UACC-257 melanoma; UO-31 renal; MCF7 breast; SK-MEL-2 melanoma; K-562 leukemia; PC-3 prostate.
Assay in all cases: inhibition of tumour cell growth, NCI panel, 48 h

Take `C/C(=C/C(=O)N(C)c1ccccc1Cl)O[Si](C(C)C)(C(C)C)C(C)C`: the TGI was determined as 33.1 µM in the assay with 786-0 renal; 56.6 µM in the assay on BT-549 breast; 32.6 µM in the assay with COLO 205 colon; 34.2 µM in the assay with HCT-116 colon; 37.1 µM with HCT-15 colon; 74.4 µM with HOP-62 NSCLC. Also, the TGI was 51.5 µM with MALME-3M melanoma; more than 100 µM with MDA-MB-435; more than 100 µM with MOLT-4 leukemia; 34.5 µM in the assay on NCI-H226 lung; 39.6 µM in the assay with NCI/ADR-RES ovarian; more than 100 µM with OVCAR-4 ovarian. Moreover, the TGI in the assay with SF-295 CNS is 74.8 µM; in the assay with SW-620 colon, 38.9 µM; in the assay on UACC-257 melanoma, 66.4 µM; in the assay on UO-31 renal, 39.3 µM.
Turning to `N#CC(C#N)=CNC(=S)Nc1ccc(S(=O)(=O)Nc2nccs2)cc1`, the TGI in the assay with 786-0 renal, in the assay on BT-549 breast, with COLO 205 colon, in the assay with HCT-116 colon, in the assay on HCT-15 colon and with HOP-62 NSCLC was more than 100 µM each time. Also, the TGI in the assay on MCF7 breast, in the assay with MDA-MB-435, in the assay with MOLT-4 leukemia, in the assay on NCI-H226 lung, in the assay with NCI/ADR-RES ovarian and in the assay on OVCAR-4 ovarian was more than 100 µM each time. In addition, the TGI with SF-295 CNS, in the assay on SK-MEL-2 melanoma, in the assay on SW-620 colon, in the assay with UACC-257 melanoma and in the assay on UO-31 renal was more than 100 µM in each case.
Regarding `O=C1OCC2=C1C(c1ccc(Cl)cc1)c1cc3c(cc1O2)OCO3` (centres undefined), the TGI in the assay on 786-0 renal is more than 100 µM; in the assay on COLO 205 colon, more than 100 µM; in the assay on HCT-116 colon, more than 34.6 µM; in the assay with HCT-15 colon, more than 100 µM; in the assay with HOP-62 NSCLC it was more than 35.4 µM; in the assay with K-562 leukemia it was more than 100 µM. The TGI in the assay with MALME-3M melanoma was more than 100 µM; with MCF7 breast, more than 27.2 µM; with MDA-MB-435, 5.31 µM; in the assay on MOLT-4 leukemia it was 46.3 µM; in the assay on NCI-H226 lung, more than 100 µM; with NCI/ADR-RES ovarian it was more than 31.2 µM. The TGI with OVCAR-4 ovarian, in the assay on PC-3 prostate, in the assay with SF-295 CNS, with SK-MEL-2 melanoma, with SW-620 colon and in the assay with UACC-257 melanoma was more than 100 µM throughout. This molecule had a TGI in the assay on UO-31 renal of more than 100 µM.
Consider `NC(Cc1c2ccccc2cc2ccccc12)C(=O)O` (centres undefined), for which the TGI with 786-0 renal, with COLO 205 colon, in the assay on HCT-116 colon, in the assay on HCT-15 colon, in the assay on HOP-62 NSCLC and in the assay on K-562 leukemia was more than 100 µM in each case. Also, the TGI was more than 100 µM in the assay on MALME-3M melanoma; more than 100 µM in the assay on MCF7 breast; more than 100 µM in the assay with MDA-MB-435; 94.4 µM in the assay with MOLT-4 leukemia; more than 100 µM with NCI-H226 lung; more than 100 µM in the assay with NCI/ADR-RES ovarian. Further, the TGI with OVCAR-4 ovarian, with PC-3 prostate, with SF-295 CNS, in the assay on SK-MEL-2 melanoma, in the assay with SW-620 colon and with UACC-257 melanoma was more than 100 µM each time. The TGI with UO-31 renal is more than 100 µM.
In the case of `NCCCc1nonc1C(=O)O`, the TGI in the assay on 786-0 renal, in the assay with COLO 205 colon, in the assay on HCT-116 colon, in the assay on HCT-15 colon, in the assay with HOP-62 NSCLC and in the assay on K-562 leukemia was more than 100 µM each time. The TGI in the assay with MALME-3M melanoma, in the assay on MCF7 breast, in the assay with MDA-MB-435, with MOLT-4 leukemia, with NCI-H226 lung and in the assay with NCI/ADR-RES ovarian was more than 100 µM each time. The TGI in the assay with OVCAR-4 ovarian, with PC-3 prostate, with SF-295 CNS, in the assay with SK-MEL-2 melanoma, in the assay with SW-620 colon and with UACC-257 melanoma was more than 100 µM in each case. In the assay with UO-31 renal, the TGI is more than 100 µM.
As for `O=C1C/C(=C\c2ccccc2)C(=O)c2ccccc2N1`, the TGI was 34.5 µM in the assay with 786-0 renal; 34.8 µM with COLO 205 colon; 29.3 µM with HCT-116 colon; 44.7 µM with HCT-15 colon; 56.6 µM in the assay on HOP-62 NSCLC; 34.2 µM with MALME-3M melanoma. The TGI in the assay on MCF7 breast is more than 100 µM; in the assay with MDA-MB-435, 42.7 µM; with MOLT-4 leukemia, more than 100 µM; in the assay with NCI-H226 lung it was 80.4 µM; with NCI/ADR-RES ovarian, 54.7 µM; with OVCAR-4 ovarian, 49.1 µM. In addition, the TGI with PC-3 prostate was 50.1 µM; with SF-295 CNS, 36.8 µM; with SK-MEL-2 melanoma, 60.6 µM; in the assay on SW-620 colon, 40.7 µM; in the assay with UACC-257 melanoma, 48.6 µM.
As to `c1ccc2sc(C3(N4CCCCCC4)CCCCC3)cc2c1`, the TGI worked out at 42.9 µM in the assay on 786-0 renal; 61.2 µM in the assay on BT-549 breast; 30 µM in the assay on COLO 205 colon; 52.1 µM in the assay on HCT-116 colon; 53.6 µM in the assay with HCT-15 colon; 86.8 µM in the assay on HOP-62 NSCLC. Moreover, the TGI in the assay with K-562 leukemia amounted to 33.1 µM; with MCF7 breast, 32.9 µM; with MDA-MB-435, 71.1 µM; with MOLT-4 leukemia, 31.5 µM; in the assay with NCI-H226 lung, 42.9 µM; with NCI/ADR-RES ovarian, 55.2 µM. For the same molecule, the TGI was more than 100 µM with OVCAR-4 ovarian; 59.1 µM in the assay with SF-295 CNS; 36.6 µM in the assay with SW-620 colon; 50 µM with UACC-257 melanoma; 56.2 µM with UO-31 renal.
Take `COC(=O)C#CC1(O)C=CC(=O)C=C1`: the TGI in the assay on 786-0 renal worked out at 1.82 µM; with BT-549 breast, 3.42 µM; in the assay on HCT-15 colon, 4.32 µM; with HOP-62 NSCLC, 15.7 µM; in the assay with MALME-3M melanoma it was 4.48 µM; with MDA-MB-435 it was 1.28 µM. The TGI in the assay with MOLT-4 leukemia is 0.0794 µM; in the assay on NCI-H226 lung, 20.8 µM; in the assay with NCI/ADR-RES ovarian it was more than 100 µM; in the assay on OVCAR-4 ovarian, 17 µM; in the assay on PC-3 prostate, 5.76 µM; with SF-295 CNS it was more than 41.8 µM. Also, the TGI in the assay with SK-MEL-2 melanoma turned out to be 7.64 µM; in the assay on UACC-257 melanoma, 3.64 µM; with UO-31 renal, 10.6 µM.
